The results in this text go back to patent US5789425A, “Imidazolidinone derivatives, their acid adducts and therapeutic drugs for senile dementia” (Kyorin Pharmaceutical Co., Ltd., priority 1993, dated 1998).

For test [1], the target named is T1, M1 type muscarinic cholinergic receptor (Rattus norvegicus, UniProt P08482).
T1 construct: crude synaptosome membrane specimen prepared from all brains (except cerebellum and brain stem) of rat; from tissue; host or cells: rat whole brain without cerebellum and brain stem, crude synaptosomal membranes
T1 sequence (P08482 1-460): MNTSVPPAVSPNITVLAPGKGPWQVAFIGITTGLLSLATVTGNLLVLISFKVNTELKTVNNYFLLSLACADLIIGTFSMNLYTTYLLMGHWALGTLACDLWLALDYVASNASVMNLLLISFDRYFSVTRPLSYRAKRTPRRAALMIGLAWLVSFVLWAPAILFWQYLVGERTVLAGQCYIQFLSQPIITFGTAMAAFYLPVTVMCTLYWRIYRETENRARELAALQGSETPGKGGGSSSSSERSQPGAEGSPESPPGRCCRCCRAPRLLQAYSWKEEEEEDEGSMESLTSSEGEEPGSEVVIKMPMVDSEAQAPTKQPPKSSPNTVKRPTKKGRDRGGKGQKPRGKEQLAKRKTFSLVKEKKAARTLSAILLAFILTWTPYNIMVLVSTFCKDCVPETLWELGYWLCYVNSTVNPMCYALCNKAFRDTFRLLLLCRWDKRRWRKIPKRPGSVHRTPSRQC
As to the kind of experiment: Radioligand binding experiment to M1 type muscarinic cholinergic receptor ([3H]-pirenzepine). To be noted: 1 nM [3H]-pirenzepine, rat brain synaptosome membrane, 60 minutes at 25° C.; read-out: [^3 H]-PZ (M1) IC50. How it is done: 1) Radioligand binding experiment to M1 type muscarinic cholinergic receptor
Method: To a crude synaptosome membrane specimen prepared from all brains (except cerebellum and brain stem) of rat, [^3 H]-pirenzepine ([^3 H]-PZ, final concentration: 1 nM) and testing compound were added and the mixture was incubated for 60 minutes at 25° C. After stopped the reaction by filtered with suction, the radioactivity on filter was measured with liquid scintillation counter. The specific binding level of [^3 H]-pirenzepine was determined by subtracting the non-specific binding level in the presence of atropine (1 μM) from total binding level. Putting the [^3 H]-pirenzepine binding in the absence of testing compound on 100, the concentration of compound to decrease by 50% (IC50 value) was made an index of the binding activity of compound to M1 muscarinic receptor (refer to: J. A. D. M. Toner et al, Life Science, 1987, 40, 1981-1987).

The test system of test [2] is M1 and M2 muscarinic receptors. As to the kind of experiment: Selectivity to M1 receptor (ratio of IC50 values of M1 and M2 binding experiments). Further details: species or system rat. How it is done:
3) Selectivity to M1 receptor
This was determined from the ratio of IC50 values of testing compound obtained from the binding experiments of M1 and M2 muscarinic receptors. [formula]

Test [3] deals with T2, M2 type muscarinic cholinergic receptor (Rattus norvegicus, UniProt P10980).
T2 construct: crude synaptosome membrane specimen was prepared from the brain stem (medulla oblongata-pons) of rat; from tissue; host or cells: rat brain stem (medulla oblongata-pons), crude synaptosomal membranes
T2 sequence (P10980 1-466): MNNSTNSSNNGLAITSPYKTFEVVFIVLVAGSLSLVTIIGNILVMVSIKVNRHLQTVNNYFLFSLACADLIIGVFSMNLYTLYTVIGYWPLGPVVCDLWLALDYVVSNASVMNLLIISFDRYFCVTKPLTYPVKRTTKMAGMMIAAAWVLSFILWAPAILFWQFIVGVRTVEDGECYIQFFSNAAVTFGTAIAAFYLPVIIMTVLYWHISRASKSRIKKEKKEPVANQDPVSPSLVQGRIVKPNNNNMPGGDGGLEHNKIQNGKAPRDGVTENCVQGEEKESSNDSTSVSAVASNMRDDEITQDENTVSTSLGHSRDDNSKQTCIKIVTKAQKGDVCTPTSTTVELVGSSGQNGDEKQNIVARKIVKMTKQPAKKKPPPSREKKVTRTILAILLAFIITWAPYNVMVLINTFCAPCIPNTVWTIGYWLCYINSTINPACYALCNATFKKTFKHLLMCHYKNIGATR
Briefly: Radioligand binding experiment to M2 type muscarinic cholinergic receptor ([3H]-QNB). As to conditions: 0.1 nM [3H]-QNB, rat brain stem synaptosome membrane; read-out: [^3 H]-QMB (M2) IC50.

Test [4] concerns pirenzepine-induced amnesia. Briefly: Testing on the pirenzepine-induced amnesia (step-through type passive avoidance). It counts as in vivo, Std:ddy strain male mice. As to conditions: orally 60 minutes before acquisition trial; for Reaction latency Mean ± S.E.: retention trial 24 hours later, maximum 300 seconds, pirenzepine-treated mice. An excerpt: In vivo pharmacological test
Testing on the pirenzepine-induced amnesia
For the experiment animals, Std:ddy strain male mice with body weight of 24 to 33 g (age in week: 5) (Nippon SLC) were used. For the device, a step-through type passive avoidance apparatus (made by Ohara Medical Co., Ltd.) consisting of two light and dark rooms was used. In the acquisition trial, mouse was placed in the light room and, 10 seconds later, the partitive guillotine door was opened. As soon as the mouse moved into the dark room, the guillotine door was closed and electric shock of 43 to 44 V was given for 1 second through the metal grid bars of the floor. The retention trial was conducted 24 hours later since then. […] The induction of amnesia was performed by fixing a mouse at prone position without anesthetization at 20 minutes before learning acquisition trial and injecting pirenzepine (10 μg/2 μl/mouse bilaterally into cerebral ventricles using a microsyringe. Moreover, a group not to administered with pirenzepine before acquisition trial (non-amnesia comparison group) was also provided. The testing compound was administered orally at 60 minutes before acquisition trial. The improvement rate was calculated according to following equation and the results are shown in Table 8 (refer to: M. P. Callfield et al, J. Pharm. Pharmacol.) 1983, 35, 131-132). [formula]

The IC50 is the concentration at which inhibition is half-maximal. As to `O=C1N(C2=CCCN(Cc3ccccc3)C2)CCN1c1ccc([N+](=O)[O-])cc1` [Example 4, 1-[3-(1-Phenylmethyl-1,2,5,6-tetrahydropyridyl)]-3-(4-nitrophenyl)-2-imidazolidinone], the IC50 in test [1] worked out at 530 nM. Moreover, the “IC50 (M2)/C50 (M1)” value in test [2] is greater than 11.3. Moreover, in test [3], the IC50 is greater than 6000 nM. Moreover, in test [4] (3 mg/kg), the Improvement rate came out at 43.6% and the “Reaction latency Mean ± S.E.” value is 71.1 ± 30.2 s.
As for `O=C1N(C2=CCCN(Cc3ccccc3)C2)CCN1c1ccc(Cl)cc1` [Example 17, 1-[3-(1-Phenylmethyl-1,2,5,6-tetrahydropyridyl)]-3-(4-chlorophenyl)-2-imidazolidinone], the IC50 is 370 nM in test [1] and greater than 6000 nM in test [3]. Also, in test [2], the “IC50 (M2)/C50 (M1)” value is listed as greater than 16.2. In addition, the Improvement rate in test [4] (1 mg/kg) worked out at 82.7%; in test [4] (3 mg/kg), 68.8%. Besides, the “Reaction latency Mean ± S.E.” value in test [4] (1 mg/kg) was found to be 189.9 ± 52.8 s; in test [4] (3 mg/kg), 164.2 ± 37.5 s.
